Data from patent publication US9993562B2, “Metallic gold cluster molecules as therapeutic agents for arthritic animals” (priority 2016, dated 2018).

What was measured:
[1] = tested on: Collagen induced arthritis in mice; test: Visual inflammation scoring of paws (0-4 per limb, four limbs summed), collagen induced arthritis; format: in vivo, DBA/1 male mice; conditions: for Inflammation visual score (sum of four limbs, each 0-4): i.g. 1 mg/kg once daily from day 22
Text: Collagen induced arthritis in mice has been the standard animal model for studying rheumatoid arthritis and other polyarthritis. DBA/1 male mice weighted 20-22 grams were purchased from Hua-Fu-Kang Biotechnology Limited, Beijing, China. Type II collagen and Complete Freund's Adjuvant were purchased from Chondrex Inc., Redmond, Wash., USA. Auranofin was purchased from Sigma, USA and Dexamethasone was purchased from Jin-Yao Amino Acid Company, Tianjing, China. Gold25(peptide)9 cluster molecules were prepared according to Example 1.
(§1) Type II collagen was dissolved in 0.1 mM acetic acid solution and was emulsified with equal volume of Complete Freund's Adjuvant to make a 1.0 mg/ml Type II collagen emulsion. After one week of resting and environment adjustment, DBA/1 male mice were divided into groups, each group was consisted of 10 mice. Each animal was injected intradermally at the 2-3 cm base of the tail an emulsion of 100 μg Type II collagen. On day 21, a second booster dose of 100 μg Type II collagen emulsion was injected. Negative control group of mice are injected with equal amount of 0.9% Sodium Chloride solution.
(§2) On day 22, groups of mice were given different drugs once each day for 28 days (4 weeks) until day 49 (end of week 7). The groups of mice were examined for inflammation and status.
The inflammation was assessed by means of a visual scoring method where mouse individual paws were graded from 0-4 as follows:
0 score: no redness and no swelling;
1 score: mild erythema at the toes;
2 scores: toe joints and paw swelling;
3 scores: swelling below ankle
4 scores: all ankle and paw swelling. • All four limbs of each mouse were examined and scored, and scores of all four limbs were added together for each mouse.

IL-6 = test: Amount of IL-6 at the arthritic joints (FIG. 10); format: in vivo, DBA/1 male mice; conditions: group 3, oral 1 mg/kg daily
Experimental: as §2
(§3) In reference to FIGS. 10 and 11, the amount of pro-inflammation cytokine factors IL-6 and IL-1β were measured at the arthritic joints of the variously treated mice groups.

[2] = orally administered form, crystalline solid; cited from earlier work
[3] = Amount of gold at the arthritic joints (FIG. 9); format: in vivo, DBA/1 male mice; conditions: group 3, oral 1 mg/kg daily
Experimental: as §2
In reference to FIG. 9, the amount of gold was measured at the arthritic joints of the variously treated mice groups.

[4] = Effect of treatment on body weight of type II collagen immunized mice; format: in vivo, DBA/1 male mice; conditions: mean ± sd
Experimental: DBA/1 male mice weighted 20-22 grams were purchased from Hua-Fu-Kang Biotechnology Limited, Beijing, China. Type II collagen and Complete Freund's Adjuvant were purchased from Chondrex Inc., Redmond, Wash., USA. […] Gold25(peptide)9 cluster molecules were prepared according to Example 1.
as §1, §2

[5] = light and heat; cited from earlier work
[6] = tested on: Collagen induced arthritis in mice; test: Pictures of hind limb swelling (FIG. 6), collagen induced arthritis; format: in vivo, DBA/1 male mice; conditions: end of 7 weeks of the experiment; oral 1 mg/kg daily
Experimental: as §1, §2

[7] = tested on: Collagen induced arthritis in mice; test: 3D CT scan of paw joints, bone density changes (FIG. 7); format: in vivo, DBA/1 male mice; conditions: end of week 7; oral 1 mg/kg daily
Experimental: as §1, §2

[8] = tested on: Collagen induced arthritis in mice; test: Hematoxylin and eosin histology of hind limb joint sections (FIG. 8); format: in vivo, DBA/1 male mice; conditions: H&E; oral 1 mg/kg daily
Experimental: as §1, §2
To evaluate the soft tissue damages around the joint area, the joint tissues of the hind limbs of each mouse groups were then fixed, embedded, sectioned into slides and hematoxylin and eosin stained to examine the histology and histopathology changes at the joints.

IL-1β = test: Amount of IL-1β at the arthritic joints (FIG. 11); format: in vivo, DBA/1 male mice; conditions: group 3, oral 1 mg/kg daily
Experimental: as §2, §3

[9] = patients; cited from earlier work

## CC[PH](CC)(CC)[Au][S][C@@H]1O[C@H](COC(C)=O)[C@@H](OC(C)=O)[C@H](OC(C)=O)[C@H]1OC(C)=O [Auranofin, 2,3,4,6-tetra-o-acetyl-1-thio-β-D-glucopyranosato-S-(triethyl-phosphine)-gold, reference compound]
[1]; 35 d
  Inflammation visual score (sum of four limbs, each 0-4): 6.66 ± 2.00
[1]; 38 d
  Inflammation visual score (sum of four limbs, each 0-4): 5.77 ± 3.42
[1]; 42 d
  Inflammation visual score (sum of four limbs, each 0-4): 8.11 ± 2.47
[1]; 45 d
  Inflammation visual score (sum of four limbs, each 0-4): 8.33 ± 3.42
[1]; 49 d
  Inflammation visual score (sum of four limbs, each 0-4): 9.88 ± 3.06
[1]; oral 1 mg/kg body weight
  Swelling scores (in words): slightly lower swelling scores
IL-6
  Amount of IL-6 at the arthritic joints: remained high
[2]
  Solubility in water: insoluble in water
[3]
  Amount of gold at the arthritic joints: Less but comparable amount gold
[4]; 0 w (before dosing, which starts day 22), group i.g. 1 mg/kg
  Mice Body Weight: 21.60 ± 1.17 g
[4]; 1 wk (before dosing), group i.g. 1 mg/kg
  Mice Body Weight: 23.25 ± 1.11 g
[4]; 2 wk (before dosing), group i.g. 1 mg/kg
  Mice Body Weight: 23.75 ± 1.11 g
[4]; 3 wk (before dosing), group i.g. 1 mg/kg
  Mice Body Weight: 24.35 ± 1.53 g
[4]; 4 wk, i.g. 1 mg/kg once daily from day 22
  Mice Body Weight: 22.10 ± 1.10 g
[4]; 5 wk, i.g. 1 mg/kg once daily from day 22
  Mice Body Weight: 21.74 ± 1.14 g
[4]; 6 wk, i.g. 1 mg/kg once daily from day 22
  Mice Body Weight: 23.24 ± 0.08 g
[4]; 7 wk, i.g. 1 mg/kg once daily from day 22
  Mice Body Weight: 23.33 ± 0.25 g
[5]
  Stability of the powder: unstable and must be protected from light and heat
[6]
  Hind limb swelling in pictures (FIG. 6): swelling and no obvious improvement
[7]
  Bone deformation and osteolysis of paw joints, 3D CT: still developed bone deformation and osteolysis
[8]
  Joint histopathology (bone erosion, soft tissue damage, synovial macrophage infiltration): significant soft tissue damages at the joint areas, and large number of infiltration of synovial macrophage cells
IL-1β
  Amount of IL-1β at the arthritic joints: remained high
[9]
  Side effects: Diarrhea is the most commonly reported
